experiment: gradient 5% acetonitrile 3 min, to 50% in 2 min, to 85% in 15 min, held 3 min, 100 µL/min; details: column: Zorbax Extend-C18 2.1 x 50 mm; eluents: water / acetonitrile, 0.1% formic acid
Summary of the method: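 Retention times come from adduct peaks that were picked computationally and then checked by hand. The standards, pure and pooled in mixtures of ~100 molecules, were run on a Zorbax Extend-C18 column (2.1 × 50 mm, 1.8 μm) at 100 μL/min with water and acetonitrile, each with 0.1% formic acid. Detection was by quadrupole time-of-flight mass spectrometry in positive and negative ionization mode, with a dead volume of 40 μL and a dwell volume of 900 μL.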

Row | RP-LC retention time | Compound
1 | 714 s | Cc1cc(NC(=O)Cn2ccn3nc(-c4ccccc4)c(CO)c3c2=O)no1
2 | 617 s | CCCCN(C)Cc1nnn(-c2ccc(F)cc2)c1C
3 | 691 s | CS(=O)(=O)NC1CCN(C(=O)C2CCCC2)C1 (stereo not drawn)
4 | 752 s | COc1ccc(CNC(=O)C2CCN(c3ncnc4c3oc3ccccc34)CC2)c(OC)c1
5 | 721 s | O=C(NCc1ccc(Cl)cc1)c1nc(N2CCOCC2)c2ccccc2n1
6 | 764 s | CCC(Oc1ccc(=O)n(-c2ccc(F)cc2)n1)C(=O)Nc1ccc(C(C)=O)cc1 (stereo not drawn)
7 | 815 s | Cc1nc(Cn2cccc2C(=O)Nc2ccc(F)cc2)no1
8 | 678 s | CC(C)CN1CCN(S(=O)(=O)c2cc(-c3nnc(C4CCCC4)o3)co2)CC1
9 | 811 s | CCSc1nnc(-c2nn(C)c3c2CN(C(=O)c2cc(C)ccc2C)CC3)n1C
10 | 620 s | CC(C)CC(=O)NCC1Cn2cccc2C(=O)N1C (stereo not drawn)
11 | 941 s | CCOC(=O)C1CCN(C(=O)c2cn(-c3cc(N4CCC(C)CC4)ncn3)cn2)CC1
12 | 793 s | O=C(Nc1ccc2c(c1)CCC2)C1CCc2nc(N3CCOCC3)ncc2C1 (stereo not drawn)
13 | 639 s | COc1ccc(CC(=O)Nc2ccc(-c3cn4ccc(C)nc4n3)cc2)cc1
14 | 809 s | CCn1c(N2CCCC(C(=O)NCc3ccc(SC)cc3)C2)cc(=O)n(C)c1=O (stereo not drawn)
15 | 652 s | CC(C)(C)C(=O)Nc1nnc(-c2cccs2)o1
16 | 670 s | CCn1cc(CN2CC(F)(F)C[C@H]2COc2ccncc2)c2ccccc21
17 | 864 s | CCCCCCNC(=O)C1CC(=O)N(CCc2c[nH]c3ccc(C)cc23)C1 (stereo not drawn)
18 | 944 s | COc1ccccc1NC(=O)N1CCc2cn(C)c3cccc(c23)C1
19 | 1340 s | Cc1ccc(-c2noc(-c3cccc(S(=O)(=O)N4CCCCC4)c3)n2)cc1

Row | RP-LC retention time | Compound
20 | 765 s | COc1ccc(Cl)cc1NS(=O)(=O)c1ccc2c(c1)CCCC(=O)N2
21 | 794 s | COC(=O)CNC(=O)C1COc2ccc(NC(=O)c3ccc(Br)cc3)cc2C1 (stereo not drawn)
22 | 626 s | CSc1cccc(NC(=O)N(C)Cc2nc3cc(C(=O)N(C)C)ccc3n2C)c1
23 | 865 s | CCCNC(=O)CSc1ccc(-n2nc3c(c2C)CCC3)nn1
24 | 687 s | COc1cc2ncnc(Nc3ccc(NC(=O)c4ccccc4)cc3)c2cc1OC
25 | 919 s | Cc1sc2ccn(Cc3ccc(F)cc3)c(=O)c2c1C(=O)NC1CCCC1
26 | 687 s | Cc1cccc(NS(=O)(=O)c2ccc3nnc(C)n3c2)c1
27 | 771 s | COc1ccccc1NC(=O)N1CCC(CNC(=O)CCSc2ccccc2)CC1
28 | 887 s | Cc1c(C(=O)C(=O)NCCc2ccccc2)c2ccccc2n1C
29 | 647 s | Cc1ncoc1C(=O)NCC1Cn2cccc2C(=O)N1CC(C)C (stereo not drawn)
30 | 712 s | CC(C)n1c(N2CCCN(C(=O)c3ccccn3)CC2)cc(=O)n(C(C)C)c1=O
31 | 1100 s | Cc1ccc(-c2csc(-c3cccn3CC(=O)NCc3ccco3)n2)cc1
32 | 580 s | CCCc1cc(N2CCN(C(=O)c3cccnc3)CC2)nc2nnc(CC)n12
33 | 802 s | O=C(Cn1nc(S(=O)(=O)c2cccc(F)c2)ccc1=O)N1CCN(c2ccccc2)CC1
34 | 600 s | Cc1cc(C(=O)NC2CC2)nn1C
35 | 902 s | Cc1cc(C)n2c(Nc3c(C)cccc3C)c(-c3cccc(Cl)c3)nc2n1
36 | 622 s | CCn1nccc1C(=O)N1CCC(c2noc(N)c2C)CC1
37 | 1180 s | Cc1ccc(-c2nnc(Cc3nc(-c4cccc(C(F)(F)F)c4)no3)o2)cc1F

Row | Compound | RP-LC retention time
38 | Clc1ccc(C(OCCN2CCCCC2)c2ccccc2)cc1 (stereo not drawn) | 850 s

From the METLIN SMRT retention time set (Domingo-Almenara et al. 2019)
